Test results published in patent US20250325565A1, “ERAVACYCLINE FOR TREATING CANCER” (B. G. NEGEV TECHNOLOGIES AND APPLICATIONS LTD., priority 2022, published 2025).

Experiments:
[1] = test system: p53 (mutated in BxPC-3); assay: Western blot of p53 protein expression in BxPC-3 cells; format: cell-based, human; conditions: BxPC-3, 72 h, increasing concentrations
[2] = test system: AsPC-1 cells; assay: XTT cell proliferation assay, AsPC-1; format: cell-based, human; conditions: for decrease in cell growth: 72 h
Procedure: (§1) Human PDAC (AsPC-1, BxPC-3, Panc-1 scr, Panc-1 p53-R273H knock-out (KO) hTERT-HPNE), breast (MCF-7), lung (A549), and colon (HT-29) cancer cell lines were purchased from the American Type Culture Collection (ATCC). The MCF-7, A549, Panc-1 scr, Panc-1 p53 KO and HT-29 cell lines were grown in Dulbecco's Modified Eagle Medium (DMEM; Biological Industries, Beit HaEmek (BI), Israel), and the BxPC-3 and AsPC-1 cell lines were cultured in Roswell Park Memorial Institute-1640 (RPMI-1640; BI, Israel) medium. All media was supplemented with 10% fetal bovine serum (FBS), 200 μM L-glutamine (BI), and 1% penicillin-streptomycin (BI). Cells were cultured at 37° C. in a 5% CO2 humidified incubator.
(§2) Eravacycline dihydrochloride (MedChem Express (MCE)) was dissolved in […] (DDW). Tigecycline (MCE) and omadacycline (MCE) were dissolved in dimethyl sulphoxide (DMSO). All drugs were prepared as 100 mM stock solutions. All cell lines were treated with DMSO as a control (less than 0.1%) or tigecycline, omadacycline, or eravacycline (at the indicated concentrations) for 72 hours. Cell viability and proliferation were determined using the XTT Cell Proliferation Assay Kit (Promega).
(§3) The XTT Cell Proliferation Assay Kit was used to determine cell viability and proliferation. Cells were seeded in 96-well plates at a density of 4,000 cells per well and allowed to attach overnight in a 5% CO2 incubator at 37° C. After overnight incubation, cells were treated with culture medium or in a medium containing tigecycline, omadacycline, or eravacycline at different concentrations (1, 2, 5, 10, 25, and 50 μM) for the indicated time period. Then, 50 μl XTT reaction solution (0.1 ml activation solution+5 ml XTT reagent solution) was added to each well, and the plate was incubated at 37° C. for two hours. After shaking the plate gently to distribute the dye in the wells, the absorbance was measured with a spectrophotometer (Bio-RadiMark Microplate Absorbance reader) at a wavelength of 450 nm and a reference wavelength of 655 nm.
To evaluate the half maximal inhibitory concentration (IC50) of tetracycline derivatives on five different cell lines (MCF-7, A549, HT-29, BxPC-3, and AsPC-1), the cells were seeded and allowed to attach overnight. All cells were washed with phosphate buffered saline (PBS) and then cultured in fresh media containing the drugs tigecycline, omadacycline, or eravacycline at an increasing concentration (0-50 μM) for 72 h. Inhibition of cell proliferation was determined using the XTT Cell Proliferation Assay Kit.
To investigate the effect of tetracycline derivatives on cell proliferation in human breast, lung, colon, and PDAC cells, the inventors treated all cell lines (MCF-7, A549, HT-29, BxPC-3, and AsPC-1) with different concentrations of tigecycline, omadacycline, and eravacycline (1, 2, 5, 10, 25, and 50 μM), with medium used as a control, for 72 h. Then, an XTT assay was performed to determine the growth inhibition rate.

[3] = test system: BxPC-3 cells; assay: Scratch wound healing (cell migration) assay; format: cell-based, human; conditions: BxPC-3, 10 μM, 0, 24, 48 and 72 hours
Procedure: BxPC-3 cells were cultured in six well plates to full confluence; then the monolayer of the cells was scratched using a 200 μl pipette tip. Subsequently, PBS was used to wash and remove floating and damaged cells, and medium alone or medium containing 10 μM eravacycline was added to the cells for further culture. Cell migration over the denuded area was observed and captured at the indicated times with a Nikon ECLIPSE Ts2 fluorescence microscope, equipped with DS-Fi3 camera. The wound closure rates were also measured at the indicated time points.
As one of the most malignant types of digestive tract cancer cells, PDAC cells have powerful migration and invasiveness capabilities. Therefore, the effect of eravacycline on cell migration abilities was investigated.

[4] = test system: HPNE cell line; assay: XTT cell proliferation assay, normal pancreatic HPNE cells; format: cell-based, human; conditions: 72 h
Procedure: as §1
as §3, with “Then, 50 μl XTT reaction solution (0.1 ml activation solution+5 ml XTT reagent solution) was added to each well, and the plate was incubated at 37° C. for two hours.” left out, “nm. […]” for “nm.”

[5] = test system: MCF-7 cells; assay: XTT cell proliferation assay, MCF-7; format: cell-based, human; conditions: MCF-7, 72 h, 1-50 μM
Procedure: as §1, §2
(§4) The XTT Cell Proliferation Assay Kit was used to determine cell viability and proliferation. Cells were seeded in 96-well plates at a density of 4,000 cells per well and allowed to attach overnight in a 5% CO2 incubator at 37° C. […] After shaking the plate gently to distribute the dye in the wells, the absorbance was measured with a spectrophotometer (Bio-RadiMark Microplate Absorbance reader) at a wavelength of 450 nm and a reference wavelength of 655 nm.
(§5) To evaluate the half maximal inhibitory concentration (IC50) of tetracycline derivatives on five different cell lines (MCF-7, A549, HT-29, BxPC-3, and AsPC-1), the cells were seeded and allowed to attach overnight. […] Inhibition of cell proliferation was determined using the XTT Cell Proliferation Assay Kit. […]

[6] = test system: BxPC-3 xenograft tumors; assay: BxPC-3 cell xenograft tumor model; format: in vivo, athymic nude mice; conditions: nude mice
Procedure: Six-week-old female athymic nude mice were purchased from Envigo (Jerusalem, Israel) and housed in pathogen-free conditions and fed a standard sterilized diet. The mice were housed in humidity- and temperature-controlled conditions, and the light/dark cycle was set at 12 h intervals. The animal protocol was reviewed and approved by the Committee for the Ethical Care and Use of Animals in Research at Ben-Gurion University of the Negev, complying with the Israeli Animal Welfare Law. BxPC-3 cells (4×10^6) were injected subcutaneously into one flank of the mice. Tumor size was measured every other day based on caliper measurements of tumor length and width (volume=tumor length×width^2×0.5236). Ten days later, when tumors were palpable and reached volumes of 50-150 mm^3, the mice bearing tumors were randomly assigned to control or eravacycline groups (n=6). Treatment was administered every two days using either phosphate buffered saline (PBS), eravacycline (10 mg/kg by i.p. injection) or gemcitabine (25 mg/kg by i.p. injection) for 10 days. The tumor growth and mouse weight were measured every other day during the treatment period. After the last treatment, the mice were monitored for an additional six days, and then the experiment was terminated. The mice were then sacrificed, the tumors were excised, photographed, and measured, and the tumor tissues were snap-frozen, pending analysis.
To further assess the inhibition effect of eravacycline on human PDAC cells in vivo, BxPC-3 cells were injected subcutaneously into nude mice to establish xenograft models for in vivo experiments. The mice were randomly divided into three groups: the control group, the gemcitabine group (25 mg/kg), and the eravacycline group (10 mg/kg). Following the last administration of treatment, mice were monitored for an additional six days; then the experiment was terminated, the mice were sacrificed, and the tumors were excised, photographed, and weighed (FIGS. 6B-6D).

[7] = test system: HT-29 cells; assay: XTT cell proliferation assay, HT-29; format: cell-based, human; conditions: HT-29, 72 h, 1-50 μM
Procedure: as §1, §2, §4, §5

[8] = 10 mg/kg i.p. every two days for 10 days

In the case of `CN(C)[C@@H]1C(O)=C(C(N)=O)C(=O)[C@@]2(O)C(O)=C3C(=O)c4c(O)c(NC(=O)CN5CCCC5)cc(F)c4C[C@H]3C[C@@H]12` [eravacycline, (4S,4aS,5aR,12aS)-4-(Dimethylamino)-7-fluoro-3,10,12,12a-tetrahydroxy-1,11-dioxo-9-[2-(pyrrolidin-1-yl)acetamido]-1,4,4a,5,5a,6,11,12a-octahydrotetracene-2-carboxamide], the “p53 protein expression vs control” value [1] is reported as “significantly reduced”, the “decrease in cell growth” value ([2]; AsPC-1, 25 μM) is reported as 75% and the “decrease in cell growth” value ([2]; AsPC-1, 50 μM) is reported as 89%. The “suppression of proliferation, up to” value ([2]; AsPC-1, 72 h, concentration-dependent, 1-50 μM) was 90-93%, the IC50 ([2]; Homo sapiens, ASPC1, AsPC-1, 72 h, XTT, read-out: IC50, inhibition of cell proliferation) was 7.07 µM and the “migration rate to wound vs control” value [3] was “significantly lower migration rate”. The “effect on cell proliferation of normal pancreatic cells (in words)” value [4] was “significantly less inhibition than the other PDAC cell lines”, the “effect on cell survival / proliferation (in words)” value [5] was “No significant effect” and the “mouse weight loss vs control group” value [6, 8] was “no significant weight loss”. For the same compound, the tumor growth blocked [6, 8] was 76%, the “tumor volume and tumor weight compared with gemcitabine (25 mg/kg)” value ([6]; 10 mg/kg i.p.) was “superior to gemcitabine treatment” and the “effect on cell survival / proliferation (in words)” value [7] was “No significant effect”.
